The record followed here is US20230183248A1, “PYRROLO[1,2-D][1,2,4]TRIAZINE-2-YL-ACETAMIDES AS INHIBITORS OF THE NLRP3 INFLAMMASOME PATHWAY” (JANSSEN PHARMACEUTICA NV, priority 2020, published 2023).

One data set concerns IL-1β. Description: PBMC assay: LPS-stimulated IL-1β release. Format: cell-based. The note with it: human PBMCs, 30 min compound pre-incubation, 100 ng/ml LPS for 6 hrs, supernatant, MSD. The method, then: (§1) Peripheral venous blood was collected from healthy individuals and human peripheral blood mononuclear cells (PBMCs) were isolated from blood by Ficoll-Histopaque (Sigma-Aldrich, A0561) density gradient centrifugation. After isolation, PBMCs were stored in liquid nitrogen for later use. Upon thawing, PBMC cell viability was determined in growth medium (RPMI media supplemented with 10% fetal bovine serum, 1% Pen-Strep and 1% L-glutamine). Compounds were spotted in a 1:3 serial dilution in DMSO and diluted to the final concentration in 30 µl medium in 96 well plates (Falcon, 353072). PBMCs were added at a density of 7.5 × 10^4 cells per well and incubated for 30 min in a 5% CO2 incubator at 37° C. LPS stimulation was performed by addition of 100 ng/ml LPS (final concentration, Invivogen, tlrl-smlps) for 6 hrs followed by collection of cellular supernatant and the analysis of IL-1β […] and TNF cytokines levels (µM) via MSD technology according to manufacturers’ guidelines (MSD, K151A0H).
(§2) The IC50 values (for IL-1β) and EC50 values (TNF) were obtained on compounds of the invention/examples, and are depicted in the following table: […]

A further data set deals with TNF. The data set is described as follows: PBMC assay: LPS-stimulated TNF cytokine levels. Format: cell-based. The note with it: Homo sapiens, PBMC, human PBMCs, 30 min compound pre-incubation, 100 ng/ml LPS for 6 hrs, supernatant, MSD. The method, then: as §1, §2

The IC50 is the concentration that gives 50% inhibition. A high value points to lower potency. One may read the melting point as the temperature, or range, at which the solid turns liquid. One may read the EC50 as the midpoint of the concentration-response curve. `C/C(=N/O)c1nn(CC(=O)N[C@H]2C[C@@](C)(O)C2)c(=O)c2cc(C(C)C)cn12` [Compound 64F] showed a melting point of 224.87 °C. In the data set on IL-1β (Homo sapiens, PBMC), this molecule registered an IC50 of 0.32 µM. Moreover, the concentration for a half-maximal effect (EC50) with TNF is more than 10 µM.
For `CC(C)c1nn(CC(=O)Nc2ccncn2)c(=O)c2cc(C(F)F)cn12` [Compound 29F] the same measures were 216.46 °C, 1.67 µM and more than 10 µM.
For `CCc1cc2c(=O)n(CC(=O)Nc3ccncc3F)nc(C(C)C)n2c1` [Compound 22F] the same measures were 142.64 °C, 0.67 µM and more than 10 µM.
For `CC(C)c1cc2c(=O)n(CC(=O)Nc3ccncn3)nc(N(C)C)n2c1` [Compound 55F], the melting point was 166.33 °C. Besides, in the data set on IL-1β (Homo sapiens, PBMC), the IC50 was found to be 0.36 µM. Also, in the data set with TNF, the EC50 was more than 10 µM.
On the same counts, the results for `C=C(C)c1cc2c(=O)n(CC(=O)Nc3ccncn3)nc(C(C)C)n2c1` [Compound 16F, 2-(4-isopropyl-1-oxo-7-(prop-1-en-2-yl)pyrrolo[1,2-d][1,2,4]triazin-2(1H)-yl)-N-(pyrimidin-4-yl)acetamide] are 185.03 °C, 3.7 µM and more than 10 µM.
On the same counts, the results for `C=C(OC)c1nn(CC(=O)Nc2ccncn2)c(=O)c2cc(C(C)C)cn12` [Compound 27F, 2-[7-isopropyl-4-(1-methoxyvinyl)-1-oxo-pyrrolo[1,2-d][1,2,4]triazin-2-yl]-N-pyrimidin-4-yl-acetamide] are 201.01 °C, 1.89 µM and more than 10 µM.
`CC(C)c1nn(CC(=O)Nc2ccncn2)c(=O)c2cc(-c3ccccc3)cn12` [Compound 47F] showed a melting point of 209.7 °C. The molecule further displayed a concentration for half-maximal inhibition (IC50) in the data set on IL-1β (Homo sapiens, PBMC) of more than 10 µM. This molecule also came in with a concentration giving a half-maximal response (EC50) with TNF of more than 10 µM.
Take `CC(C)c1nn(CC(=O)Nc2ccncn2)c(=O)c2cc(F)cn12` [Compound 7F]: the melting point worked out at 194.5 °C. In the data set on IL-1β (Homo sapiens, PBMC), this molecule registered an IC50 of more than 10 µM. For the same molecule, the EC50 in the data set on TNF was more than 10 µM.
Regarding `CCCc1cc2c(=O)n(CC(=O)Nc3ccncn3)nc(C(C)C)n2c1` [Compound 59F], the melting point amounted to 149.7 °C. The molecule further displayed an IC50 with IL-1β (Homo sapiens, PBMC) of 0.47 µM. Moreover, the EC50 in the data set on TNF is more than 10 µM.
On the same counts, the results for `CC(C)c1cc2c(=O)n(CC(=O)N[C@H]3C[C@@](C)(O)C3)nc(C(C)C)n2c1` [Compound 68F] are 196.59 °C, 0.16 µM and more than 10 µM.
For `COCCc1nn(CC(=O)Nc2ccncn2)c(=O)c2cc(C(C)C)cn12` [Compound 24F] the same measures were 184.19 °C, 0.89 µM and more than 10 µM.
`CCc1cc2c(=O)n(CC(=O)Nc3ccncn3)nc(N(C)C)n2c1` [Compound 73F, 2-(4-(dimethylamino)-7-ethyl-1-oxopyrrolo[1,2-d][1,2,4]triazin-2(1H)-yl)-N-(pyrimidin-4-yl)acetamide] returned a melting point of 178.1 °C. The molecule also returned a half-inhibitory concentration (IC50) with IL-1β (Homo sapiens, PBMC) of 0.35 µM. In the data set with TNF, this molecule yielded a 50% effective concentration (EC50) of more than 10 µM.
`CC(=O)NC(C)c1nn(CC(=O)Nc2ccncn2)c(=O)c2cc(C(C)C)cn12` (stereo not shown) [Compound 65F] registered a melting point of 279.37 °C. This molecule also had an IC50 in the data set on IL-1β (Homo sapiens, PBMC) of 7.08 µM. The molecule further had a half-maximal inhibitory concentration (IC50) in the data set on IL-1β of 6.9 µM. In the data set on TNF, the EC50 was more than 10 µM.
Consider `CCN(C)c1nn(CC(=O)Nc2ccncn2)c(=O)c2cc(C(C)C)cn12` [Compound 26F], for which the melting point amounted to 150.14 °C. For the same molecule, in the data set on IL-1β (Homo sapiens, PBMC), the IC50 was 1.32 µM. In the data set with TNF, this molecule registered an EC50 of more than 10 µM.
On the same counts, the results for `CC(C)c1nn(CC(=O)Nc2ccncc2F)c(=O)c2cc(Cl)cn12` [Compound 9F] are 211.91 °C, 3.4 µM and more than 10 µM.
On the same counts, the results for `CC(C)c1nn(CC(=O)NC2CCOCC2)c(=O)c2cc(-c3ccccc3)cn12` [Compound 48F] are 217.95 °C, more than 10 µM and more than 10 µM.
In the case of `CCc1cc2c(=O)n(CC(=O)N[C@H]3C[C@@](C)(O)C3)nc(N(C)C)n2c1` [Compound 58F], the melting point came to 171.4 °C. The molecule further displayed a concentration for half-maximal inhibition (IC50) in the data set on IL-1β (Homo sapiens, PBMC) of 0.37 µM.
Consider `CC(C)c1nn(CC(=O)Nc2ccncn2)c(=O)c2cc(C(C)F)cn12` (stereo not shown) [Compound 39F, 2-[7-(1-fluoroethyl)-4-isopropyl-1-oxo-pyrrolo[1,2-d][1,2,4]triazin-2-yl]-N-pyrimidin-4-yl-acetamide], for which the midpoint of inhibition in the data set with IL-1β (Homo sapiens, PBMC), the IC50, lay at 4.31 µM. This molecule returned a concentration for a half-maximal effect (EC50) with TNF of more than 10 µM.
On the same counts, the results for `CC(C)c1nn(CC(=O)Nc2ccncn2)c(=O)c2cc(Cl)cn12` [Compound 6F] are 3.67 µM and more than 10 µM.
Regarding `COc1nn(CC(=O)NC2CCOCC2)c(=O)c2cc(C(C)C)cn12` [Compound 66F], half-maximal inhibition in the data set with IL-1β (Homo sapiens, PBMC) (IC50) required 5.04 µM. Further, the half-maximal effective concentration (EC50) with TNF is more than 10 µM.
For the molecule `CC(C)c1cc2c(=O)n(CC(=O)Nc3ccncn3)nc(C(C)(C)O)n2c1` [Compound 37F, 2-[4-(1-hydroxy-1-methyl-ethyl)-7-isopropyl-1-oxo-pyrrolo[1,2-d][1,2,4]triazin-2-yl]-N-pyrimidin-4-yl-acetamide], in the data set with IL-1β (Homo sapiens, PBMC), the IC50 is 4.28 µM. Besides, the EC50 in the data set on TNF is more than 10 µM.
For `CC(C)c1nn(CC(=O)Nc2cccnc2)c(=O)c2cc(Br)cn12` [Compound 8F] the same measures were 4.24 µM and more than 10 µM.
For `CCc1nn(CC(=O)Nc2ccncc2F)c(=O)c2cc(C3CC3)cn12` [Compound 21F] the same measures were 0.68 µM and more than 10 µM.
For `CC(C)c1nn(CC(=O)Nc2ccncn2)c(=O)c2cc(Br)cn12` [Compound 1F, 2-(7-bromo-4-isopropyl-1-oxo-pyrrolo[1,2-d][1,2,4]triazin-2-yl)-N-pyrimidin-4-yl-acetamide] the same measures were 0.71 µM and more than 10 µM.
`CC(C)c1nn(CC(=O)Nc2ccncn2)c(=O)c2cc(CO)cn12` [Compound 12F] gave a concentration for half-maximal inhibition (IC50) in the data set with IL-1β (Homo sapiens, PBMC) of 9.86 µM. This molecule gave an EC50 with TNF of more than 10 µM.
For `CC(C)c1cc2c(=O)n(CC(=O)Nc3ccncn3)nc(C3CNC3)n2c1` [Compound 45F] the same measures were more than 10 µM and more than 10 µM.
For `CC(C)c1nn(CC(=O)Nc2ccncn2)c(=O)c2cc(CC3CCCOC3)cn12` (stereo not shown) [Compound 80F, 2-(4-isopropyl-1-oxo-7-((tetrahydro-2H-pyran-3-yl)methyl)pyrrolo[1,2-d][1,2,4]triazin-2(1H)-yl)-N-(pyrimidin-4-yl)acetamide], the 50% inhibitory concentration (IC50) in the data set with IL-1β (Homo sapiens, PBMC) is more than 10 µM. The same molecule showed a concentration giving a half-maximal response (EC50) with TNF of more than 10 µM.
`CCc1cc2c(=O)n(CC(=O)Nc3ccncn3)nc(C(C)C)n2c1` [Compound 23F] came in with an IC50 in the data set on IL-1β (Homo sapiens, PBMC) of 0.28 µM. The concentration for a half-maximal effect (EC50) in the data set on TNF is more than 10 µM.
On the same counts, the results for `CC(C)Cc1cc2c(=O)n(CC(=O)Nc3ccncn3)nc(C(C)C)n2c1` [Compound 34F, 2-(7-isobutyl-4-isopropyl-1-oxo-pyrrolo[1,2-d][1,2,4]triazin-2-yl)-N-pyrimidin-4-yl-acetamide] are 3.84 µM and more than 10 µM.
For `CC(C)c1nn(CC(=O)Nc2ccncn2)c(=O)c2cc(-c3cn(C)cn3)cn12` [Compound 93F, 2-(4-isopropyl-7-(1-methyl-1H-imidazol-4-yl)-1-oxopyrrolo[1,2-d][1,2,4]triazin-2(1H)-yl)-N-(pyrimidin-4-yl)acetamide], in the data set with IL-1β (Homo sapiens, PBMC), the half-inhibitory concentration (IC50) was more than 10 µM. In the data set with TNF, the concentration giving a half-maximal response (EC50) is more than 10 µM.
On to `CNC(=O)c1cc2c(=O)n(CC(=O)Nc3ccncn3)nc(C(C)C)n2c1` [Compound 76F, 4-isopropyl-N-methyl-1-oxo-2-(2-oxo-2-(pyrimidin-4-ylamino)ethyl)-1,2-dihydropyrrolo[1,2-d][1,2,4]triazine-7-carboxamide], for which the IC50 with IL-1β (Homo sapiens, PBMC) is more than 10 µM. The molecule also came in with a half-maximal effective concentration (EC50) in the data set on TNF of more than 10 µM.
In turn, `CC(C)c1nn(CC(=O)Nc2ccncc2F)c(=O)c2cc(Br)cn12` [Compound 10F] displayed an IC50 in the data set on IL-1β (Homo sapiens, PBMC) of 0.89 µM. This molecule had a concentration for a half-maximal effect (EC50) with TNF of more than 10 µM.
On the same counts, the results for `CC(C)c1nn(CC(=O)Nc2ccncc2F)c(=O)c2cc(F)cn12` [Compound 52F] are more than 10 µM and more than 10 µM.
`CC(C)c1nn(CC(=O)Nc2ccncn2)c(=O)c2cc(CCCF)cn12` [Compound 78F, 2-(7-(3-fluoropropyl)-4-isopropyl-1-oxopyrrolo[1,2-d][1,2,4]triazin-2(1H)-yl)-N-(pyrimidin-4-yl)acetamide] returned an IC50 in the data set on IL-1β (Homo sapiens, PBMC) of 2.33 µM. The molecule also had a 50% effective concentration (EC50) with TNF of more than 10 µM.
The molecule `CC(C)c1nn(CC(=O)Nc2ccncn2)c(=O)c2cc(C(C)(C)O)cn12` [Compound 86F, 2-(7-(2-hydroxypropan-2-yl)-4-isopropyl-1-oxopyrrolo[1,2-d][1,2,4]triazin-2(1H)-yl)-N-(pyrimidin-4-yl)acetamide] showed a concentration for half-maximal inhibition (IC50) in the data set with IL-1β (Homo sapiens, PBMC) of more than 10 µM. For the same molecule, the EC50 with TNF is more than 10 µM.
`CC(C)c1nn(CC(=O)Nc2ccncn2)c(=O)c2cc(C(C)(C)F)cn12` [Compound 87F, 2-(7-(2-fluoropropan-2-yl)-4-isopropyl-1-oxopyrrolo[1,2-d][1,2,4]triazin-2(1H)-yl)-N-(pyrimidin-4-yl)acetamide] showed a 50% inhibitory concentration (IC50) in the data set on IL-1β (Homo sapiens, PBMC) of 8.26 µM. In the data set on TNF, this molecule yielded an EC50 of more than 10 µM.
On the same counts, the results for `CCOC(C)c1nn(CC(=O)Nc2ccncn2)c(=O)c2cc(C(C)C)cn12` (stereo not shown) [Compound 40F] are 8.13 µM and more than 10 µM.
